Test results as given in patent publication US4322411A, “Anti-inflammatory nucleosides” (Burroughs Wellcome Co., priority 1980, dated 1982).
Where two headings read alike, the source gives them in different places.

Legend:
Analgesic activity = settings: in vivo
[1] = Side effects (gastric damage, platelet aggregation, steroid side effects)
[2] = system: established adjuvant arthritis; test: Established adjuvant arthritis; format: in vivo, rat; settings: for ED25: Rattus norvegicus, po, 1008 h, read-out: Established Arthritis ED25 on Day 42
Experimental: (§1) There were 5 animals in each drug-treated group. For developing adjuvant arthritis the drugs were administered in the diet from day 1 to day 16. For established adjuvant arthritis the drugs were administered from day 21 to day 42.

[3] = in vivo; cited from earlier work
immune response = settings: in vivo; cited from earlier work
Therapeutic index = settings: in vivo
[4] = system: carrageenan pleurisy (3 hour pleural exudate volume); test: Duration of action of anti-inflammatory activity (Carrageenan Pleurisy Assay); format: in vivo, rat; settings: for duration of action (time of drug administration prior to carrageenan injection at which inhibition of 3 hour pleural exudate volume declined to 40%): single oral pretreating dose
Experimental: Following the procedure previously described by Vinegar et al. in Proc. Soc. Exp. Biol. Med., 143, 711 (1973) and recently modified (Vinegar et al., Eur. J. Rheum. Inflam. 1, 204 (1978)) the acute anti-inflammatory activity of 3-deazaadenosine was compared with that of known anti-inflammatory drugs. The average 3 hr exudate volume for each drug-treated group was determined and the % inhibition relative to solvent-fed control animals calculated, the ED50 (mg/kg of body wt) being the dose required to reduce the 3 hr exudate volume by 50%. There were 5 animals in each drug-treated group and the control group.
Duration of action of anti-inflammatory activity of 3-deazaadenosine
By means of the Carrageenan Pleurisy Assay of Example 1 the duration of action of the test compounds after a single oral pretreating dose was determined. For 3-deazaadenosine the effect lasted for 14.9 hours at 6 mg/kg (p.o.) whilst for aspirin (150 mg/kg p.o.) and acetaminophen (220 mg/kg p.o.) the effect lasted […] and 2 hours, respectively. This value represents the time (hours) of drug administration prior to the injection of carrageenan in which the inhibition of the 3 hour pleural exudate volume declined to 40%.

[5] = system: developing adjuvant arthritis; test: Developing adjuvant arthritis; format: in vivo, rat; settings: for ED50: Rattus norvegicus, po, 384 h, read-out: Developing Arthritis ED50 on Day 16
Experimental: as §1

Antipyretic activity = settings: in vivo
liver = test: Liver damage in animal models; format: in vivo; settings: in the animal models used
inflammation = test: Anti-inflammatory effectiveness by route; format: in vivo; settings: result in words
Water solubility = format: physicochemical
cyclooxygenase pathway = test: Inhibition of prostaglandin metabolism in vitro, cyclooxygenase pathway; format: biochemical
[6] = system: carrageenan pleurisy (3 hr exudate volume); test: Local anti-inflammatory activity: Carrageenan Pleurisy Assay (CPA), intrapleural; format: in vivo, rat; settings: 3 hr Vol
Excerpt: Local Anti-Inflammatory Activity of 3-Deazaadenosine: Carrageenan Pleurisy Assay (CPA)
Following the procedure described by Vinegar et al., Eur. J. Rheum. Inflam. […] There were 5 animals in each drug-treated group and the control group.

Half life = settings: in vivo
lipoxygenase pathway = test: Inhibition of prostaglandin metabolism in vitro, lipoxygenase pathway; format: biochemical

## Nc1nccc2c1ncn2[C@@H]1O[C@H](CO)[C@@H](O)[C@H]1O [3-Deazaadenosine, 4-amino-1-β-D-ribofuranosyl-1H-imidazo[4,5-c]-pyridine]
Analgesic activity
  analgesic activity per se: has not analgesic activity per se
[1]
  side effects of the anti-inflammatory steroids: free of the side effects of the anti-inflammatory steroids
[1]; inferred from lack of inhibition of prostaglandin metabolism
  side effects associated with prostaglandin inhibitors (gastric damage, inhibition of platelet aggregation): free of the side effects
[2]; from day 21 to day 42, parentheses indicate an approximate value
  ED25: ~18 mg/kg/day
[2]; result in words
  inhibition of established adjuvant arthritis: inhibit both developing and established adjuvant arthritis
[3]
  dose required for antiviral activity: 100-200 mg/kg per day
Immune response
  dose required for immunesuppression: more than 30 mg/kg
Therapeutic index
  therapeutic index: high
[4]; 6 mg/kg p.o.
  duration of action (time of drug administration prior to carrageenan injection at which inhibition of 3 hour pleural exudate volume declined to 40%): 14.9 h
[4]; general statement, no dose given
  duration of action: about 15 hours
[5]; in diet from day 1 to day 16
  ED50: 8 ± 2.8 mg/kg
[5]; result in words
  inhibition of developing adjuvant arthritis: inhibit both developing and established adjuvant arthritis
Antipyretic activity
  antipyretic activity: not antipyretic
liver
  liver damage: does not cause liver damage
inflammation
  anti-inflammatory effectiveness by route: effective orally, systemically and locally
Water solubility
  water solubility: high
Cyclooxygenase pathway
  inhibition of prostaglandin metabolism via cyclooxygenase pathway: does not inhibit
[6]
  ED50: 0.05 mg/rat
Half life
  half life: short
Lipoxygenase pathway
  inhibition of prostaglandin metabolism via lipoxygenase pathway: does not inhibit

## CC(=O)Oc1ccccc1C(=O)O [Aspirin, reference compound]
[2]
  ED25: < 150 mg/kg/day
[4]; 150 mg/kg p.o.
  duration of action (time of drug administration prior to carrageenan injection at which inhibition of 3 hour pleural exudate volume declined to 40%): 35 h
[5]
  ED50: 150 ± 53.1 mg/kg
[6]
  ED50: 0.04 mg/rat

## C[C@]12CCC(=O)C=C1CC[C@@H]1[C@@H]2[C@@H](O)C[C@@]2(C)[C@H]1CC[C@]2(O)C(=O)CO [Hydrocortisone]
[6]
  ED50: < 0.1 mg/rat

## C[C@]12C=CC(=O)C=C1CC[C@@H]1[C@@H]2[C@@H](O)C[C@@]2(C)[C@H]1CC[C@]2(O)C(=O)CO [Prednisolone, reference compound]
[2]
  ED25: 0.2 mg/kg/day
[5]
  ED50: 1 mg/kg

## CC(=O)Nc1ccc(O)cc1 [acetaminophen, reference compound]
[4]; 220 mg/kg p.o.
  duration of action (time of drug administration prior to carrageenan injection at which inhibition of 3 hour pleural exudate volume declined to 40%): 2 h
liver
  liver damage: cause liver damage
